# Source: paper PMC12040169 (PLOS Biology, 2025)
# Assay: in vitro
# Conditions: human, hela cells, % viability
row,Structure (SMILES),"viability at 28.5 h, 10 µM"
1,C[C@H](NC(=O)N1CCC(c2nc(-c3ccccc3)c3ccccn23)CC1)c1ccccc1 [CBK047086],92.7%
2,Cc1ccc(CNC(=O)N2CCC3(CC2)OCCc2c3[nH]c3ccccc23)cc1 [CBK047121],93.3%
3,COc1ccccc1-c1nc(C2CCCN(C(=O)NCCc3cccs3)C2)n2ccccc12 (centres unmarked) [CBK047163],95.5%
4,Cc1ccc2[nH]c3c(c2c1)CCNC31CCN(C(=O)CC(C)CC(=O)O)CC1 (centres unmarked) [CBK047196],109%
5,COc1ccc2[nH]c3c(c2c1)CCOC31CCN(C(=O)CC(C)CC(=O)O)CC1 (centres unmarked) [CBK047197],100%
6,COc1ccc2c(c1)CC(=O)NC21CCN(C(=O)CCCC(=O)O)CC1 [CBK047208],90.3%
7,O=C1Cc2cc3ccccc3cc2C2(CCN(C(=O)c3ccccc3C(=O)O)CC2)N1 [CBK047216],94.8%
8,Cc1ccc2[nH]c3c(c2c1)CCNC31CCN(C(=O)[C@@H]2CCCC[C@@H]2C(=O)O)CC1 [CBK047222],89.9%
9,O=C(Nc1cccc(Cl)c1)N1CCCC(c2nc(-c3ccccc3)c3ccccn23)C1 (centres unmarked) [CBK047233],90.4%
10,O=C(O)c1ccccc1C(=O)N1CCC2(CC1)NCCc1c2[nH]c2ccccc12 [CBK047235],83.9%
11,Cc1ccc(-c2nc(C3CCCN(C(=O)NC4CCCCC4)C3)n3ccccc23)cc1 (centres unmarked) [CBK047241],94.4%
12,COc1ccc2c(c1)CC(=O)NC21CCN(C(=O)NC(C)C)CC1 [CBK047261],95.7%
13,COc1cc2c(cc1OC)C1(CCN(C(=O)Nc3ccc(F)cc3F)CC1)NC(=O)C2 [CBK047264],84.8%
14,COc1cc2c(c(OC)c1OC)CC(=O)NC21CCN(C(=O)CC(C)CC(=O)O)CC1 (centres unmarked) [CBK047265],94.8%
15,CC(NC(=O)N1CCC2(CC1)NC(=O)Cc1ccccc12)c1cccc2ccccc12 (centres unmarked) [CBK047280],84%
16,COc1ccccc1NC(=O)N1CCC2(CC1)NC(=O)Cc1cc3ccccc3cc12 [CBK047284],92.1%
17,O=C1Cc2ccccc2C2(CCN(C(=O)NCc3cccc(F)c3)CC2)N1 [CBK047288],81%
18,COc1cc2c(c(OC)c1OC)CC(=O)NC21CCN(C(=O)NC(C)(C)C)CC1 [CBK047301],94.2%
19,CCOC(=O)c1[nH]c2ccccc2c1NS(=O)(=O)c1ccc(Br)cc1 [CBK047409],116%
20,CCOC(=O)c1[nH]c2ccccc2c1NS(=O)(=O)Cc1ccccc1[N+](=O)[O-] [CBK047426],94.7%
21,CNC(=O)c1cc(-c2cccc(C)c2)oc1C [CBK047432],80.3%
22,CCOC(=O)c1sc(NS(=O)(=O)Cc2ccccc2)nc1C [CBK047448],105%
23,CN1CCN(CC(=O)Nc2cc(N3CCOCC3)ccc2[N+](=O)[O-])CC1 [CBK047475],92.9%
24,Cc1oc(-c2ccccc2)nc1C(=O)O [CBK047490],98.4%
25,CCOC(=O)c1ccccc1NC(=O)N[C@@H]1CC[C@@]2(c3ccc(OC)c(OC)c3)CCN(C)[C@H]2C1 [CBK047494T],94.9%

row,Structure (SMILES),"viability at 28.5 h, 10 µM"
1,C[C@H]1CNCCN1c1nccnc1Cl [CBK047524F],88%
2,COc1ccc([C@@]23CC[C@@H](NC(=O)Nc4ccccc4C#N)C[C@@H]2N(C)CC3)cc1OC [CBK047540T],96.1%
3,COc1ccc([C@@]23CCC(NC(=O)Nc4ccc5c(c4)Cc4ccccc4-5)C[C@@H]2N(C)CC3)cc1OC (some centres unmarked) [CBK047550T],85.9%
4,COc1ccc([C@@]23CCC(NC(=O)Nc4ccc(OCc5ccccc5)cc4)C[C@@H]2N(C)CC3)cc1OC (some centres unmarked) [CBK047551T],105%
5,Cc1oc(-c2ccc(Cl)cc2)cc1C(=O)CC#N [CBK047603],85.4%
6,CN(C)C(=O)c1ccc(Cn2nc(C(=O)NCCOc3ccccc3)c3ccccc32)cc1 [CBK047700],91.7%
7,C#CCNC(=O)c1nn(Cc2ccc(S(=O)(=O)N(C)OC)cc2)c2ccccc12 [CBK047985],96.2%
8,COc1ccc(Cn2nc(NS(=O)(=O)c3ccc(-c4ccon4)s3)c3ccccc32)cc1 [CBK048031],92.9%
9,COc1cccc(S(=O)(=O)Nc2nn(Cc3ccc(C)cc3)c3ccccc23)c1 [CBK048043],89.8%
10,O=S(=O)(Nc1nn(Cc2ccc(C(F)(F)F)cc2)c2ccccc12)c1cccc2nsnc12 [CBK048086],94.8%
11,COc1ccc(Cn2nc(NC(C)=O)c3ccccc32)cc1 [CBK048200],109%
12,Cc1ccc(Cn2nc(NC(=O)c3cc(C)on3)c3ccccc32)cc1 [CBK048215],90.8%
13,COc1ccc(Cn2nc(NC(=O)c3cnc4ccccc4n3)c3ccccc32)cc1 [CBK048343],93%
14,COc1ccc(Cn2nc(NC(=O)c3cn(C)c4ccccc34)c3ccccc32)cc1 [CBK048344],57.2%
15,O=C(Cc1ccc2c(c1)OCO2)Nc1nn(Cc2ccc(C(F)(F)F)cc2)c2ccccc12 [CBK048401],115%
16,CCc1cc(OCc2ccc(Cn3nc(NC(C)=O)c4ccccc43)cc2)c2ccccc2n1 [CBK048402],91%
17,COCCOc1cccc(OCCOc2nccnc2N2CCNC[C@H]2C)c1 [CBK048435],104%
18,O=C(NCc1ccco1)c1nn(-c2nc3ccccc3s2)c2ccccc12 [CBK048482],97.4%
19,C#CCNC(=O)c1nn(-c2nc3ccccc3s2)c2ccccc12 [CBK048486],99.2%
20,Cc1cc(NC(=O)c2nn(-c3nc4ccccc4s3)c3ccccc23)no1 [CBK048489],95.4%
21,O=C(NCCOc1ccccc1)c1nn(-c2ncccn2)c2ccccc12 [CBK048494],81%
22,O=C(NCCc1c[nH]c2ccccc12)c1nn(-c2ncccn2)c2ccccc12 [CBK048496],77.7%
23,O=C(NCc1ccncc1)c1nn(-c2ncccn2)c2ccccc12 [CBK048498],93.1%
24,O=C(NC1CC1)c1nn(-c2ncccn2)c2ccccc12 [CBK048508],88%
25,O=C(Nc1ccc(OC(F)(F)F)cc1)c1nn(-c2ncccn2)c2ccccc12 [CBK048510],98.9%

row,Structure (SMILES),"viability at 28.5 h, 10 µM"
1,O=C(Nc1ccon1)c1nn(-c2ncccn2)c2ccccc12 [CBK048513],95.3%
2,COc1ccc(Cn2nc(NC(=O)Nc3c(C)noc3C)c3ccccc32)cc1 [CBK048528],88.9%
3,COc1ccc(Cn2nc(NC(=O)Nc3ccc(N(C)C)cc3)c3ccccc32)cc1 [CBK048529],90%
4,CN(C)C(=O)c1ccc(Cn2nc(NC(=O)OCc3ccccc3)c3ccccc32)cc1 [CBK048578],89.6%
5,CS(=O)(=O)Nc1nccnc1N1CCN(c2ccccc2)CC1 [CBK048688],91.8%
6,COc1cc(OC)nc(N2CCN(c3nccnc3NS(=O)(=O)C3CC3)CC2)n1 [CBK048698],109%
7,O=S(=O)(Nc1nccnc1N1CCN(c2ccccc2)CC1)c1ccc(F)cc1 [CBK048706],94.2%
8,CCCS(=O)(=O)Nc1nccnc1N1CCN(c2ccc3c(c2)OCO3)CC1 [CBK048824],93.6%
9,CCCS(=O)(=O)Nc1nccnc1N1CCN(c2cnccn2)CC1 [CBK048828],85.5%
10,Cc1cc(C)cc(NC(=O)N2CCN(c3nccnc3NS(C)(=O)=O)CC2)c1 [CBK048877],105%
11,CNC(=S)N1CCN(c2nccnc2NS(=O)(=O)Cc2ccccc2)CC1 [CBK049044],102%
12,COCc1ccc(-c2nccnc2NS(C)(=O)=O)cc1 [CBK049631],101%
13,O=S(=O)(Nc1nccnc1N1CCN(c2cnccn2)CC1)c1ccc(Cl)cc1 [CBK049664],88.1%
14,COc1cc([C@@]23CCC(=O)C[C@@H]2N(C)CC3)ccc1OCc1ccccc1 [CBK049727],106%
15,COc1ccccc1CN(CC1CCNCC1)C(=O)NC(c1ccccc1)c1ccccc1 [CBK049741],115%
16,O=C(Nc1ccccc1C(F)(F)F)N(Cc1ccccc1C(F)(F)F)CC1CCNCC1 [CBK049744],112%
17,CC(C)(C)c1ccc(NC(=O)N(Cc2ccccc2C(F)(F)F)CC2CCNCC2)cc1 [CBK049752],86.7%
18,O=C(NCc1ccccc1Cl)N(Cc1cccc(Cl)c1)CC1CCNCC1 [CBK049762],80.4%
19,Cc1noc(C)c1NC(=O)N(Cc1ccc2ccccc2c1)CC1CCNCC1 [CBK049774],110%
20,O=C(Nc1c(F)cccc1F)N(Cc1cc(F)cc(F)c1)CC1CCNCC1 [CBK049795],90.5%
21,CC(C)(C)c1ccccc1NC(=O)N(Cc1cc(F)cc(F)c1)CC1CCNCC1 [CBK049802],108%
22,Nc1nc(CC(=O)N2CCCCC2)cs1 [CBK049866],97.9%
23,Cc1c(Cl)cccc1S(=O)(=O)Nc1c(C(=O)O)[nH]c2ccccc12 [CBK049889],86.5%
24,COc1cc([C@@]23CC[C@@H](NC(=O)Nc4ccc(F)c(F)c4)C[C@@H]2N(C)CC3)ccc1O [CBK049958C],90.3%

# Same assay, conditions: human, hela cells, % viability, bulk resorufin, single well
row,Structure (SMILES),"viability at 28.5 h, 10 µM"
1,CN(C)C(=O)c1ccc(Cn2nc(C(=O)NC3CC3)c3ccccc32)cc1 [CBK047720],93.1%
2,Cc1ccc(Cn2nc(C(=O)NCc3ccncc3)c3ccccc32)cc1 [CBK047832],82.7%
3,Cc1ccc(Cn2nc(C(=O)Nc3ccccn3)c3ccccc32)cc1 [CBK047839],105%
4,CONC(=O)c1nn(Cc2ccc(C)cc2)c2ccccc12 [CBK047848],79.6%
5,O=C(Nc1ccc2c(c1)OC(F)(F)O2)c1nn(Cc2ccc(-c3csnn3)cc2)c2ccccc12 [CBK047877],86.8%
6,COc1ccc(Cn2nc(C(=O)NCc3ccco3)c3ccccc32)cc1 [CBK047883],63.3%
7,COc1ccc(Cn2nc(C(=O)Nc3nnc(C(F)(F)F)s3)c3ccccc32)cc1 [CBK047884],99.3%
8,Cc1ccc(Cn2nc(NC(=O)Oc3ccccc3)c3ccccc32)cc1 [CBK048407],84.2%
9,COc1ccc(OC(=O)Nc2nn(Cc3ccc(C#N)cc3)c3ccc(C)cc23)cc1 [CBK048654],74.4%
